PubChem BioAssay AID248 (DTP/NCI, 2004)
Values joined by “and” are separate entries in the source; they are usually repeats but may differ in a detail not shown here. Equal entries are not always repeated. Inconclusive results and toxic doses are left out.

Tested on: L1210 leukemia ip in BDF1 mice, survival T/C
Assay: NCI In Vivo Anticancer Drug Screen. Data for tumor model L1210 Leukemia (intraperitoneal) in B6D2F1 (BDF1) mice
Settings: higher = longer survival
Outline: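 Antitumor effect is assessed in tumor-bearing animals. Survival in the compound arm is compared with a vehicle-dosed control arm and expressed as their quotient.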

[1] = endpoint: mean survival time, dose: 200.0 mg/kg/injection, schedule: Q01DX009 (ip), vehicle: saline with Tween-80

**Q.** How did the T/C (endpoint: mean survival time, dose: 35.0 mg/kg/injection, schedule: Q01DX009 (ip), vehicle: saline) turn out when O=C[C@@H](CO)O[C@H](C=O)n1cnc2c(=O)[nH]cnc21 was run?
**A.** 116 % of control

**Q.** What about the T/C (endpoint: mean survival time, dose: 35.0 mg/kg/injection, schedule: Q01DX009 (ip), vehicle: water) of the same compound?
**A.** 122 % of control

**Q.** What about the T/C (endpoint: mean survival time, dose: 35.0 mg/kg/injection, schedule: Q01DX Z (ip), vehicle: water) of the same compound?
**A.** 120 % of control

**Q.** What about the T/C (endpoint: mean survival time, dose: 70.0 mg/kg/injection, schedule: Q01DX009 (ip), vehicle: saline) of the same compound?
**A.** 188 % of control

**Q.** And the T/C (endpoint: mean survival time, dose: 70.0 mg/kg/injection, schedule: Q01DX009 (ip), vehicle: water)?
**A.** 155 % of control

**Q.** And the T/C (endpoint: mean survival time, dose: 79.0 mg/kg/injection, schedule: Q01DX009 (oral), vehicle: saline)?
**A.** 93 % of control

**Q.** What about the T/C (endpoint: mean survival time, dose: 80.0 mg/kg/injection, schedule: Q01DX009 (ip), vehicle: saline) of the same compound?
**A.** 167 % of control

**Q.** What about the T/C (endpoint: mean survival time, dose: 98.0 mg/kg/injection, schedule: Q01DX006 (ip), vehicle: saline) of the same compound?
**A.** 219 % of control

**Q.** And the T/C (endpoint: mean survival time, dose: 98.0 mg/kg/injection, schedule: Q ##X009 (ip), vehicle: saline)?
**A.** 227 % of control

**Q.** And the T/C (endpoint: mean survival time, dose: 98.0 mg/kg/injection, schedule: Q## X Z (ip), vehicle: saline)?
**A.** 227 % of control

**Q.** What about the T/C (endpoint: mean survival time, dose: 119.0 mg/kg/injection, schedule: Q01DX009 (oral), vehicle: saline) of the same compound?
**A.** 110 % of control

**Q.** What about the T/C (endpoint: mean survival time, dose: 120.0 mg/kg/injection, schedule: Q01DX009 (ip), vehicle: saline) of the same compound?
**A.** 167 % of control and 188 % of control

**Q.** And the T/C (endpoint: mean survival time, dose: 125.0 mg/kg/injection, schedule: Q01DX009 (ip), vehicle: saline with Tween-80)?
**A.** 161 % of control

**Q.** What about the T/C (endpoint: mean survival time, dose: 140.0 mg/kg/injection, schedule: Q01DX006 (ip), vehicle: saline) of the same compound?
**A.** 205 % of control

**Q.** And the T/C (endpoint: mean survival time, dose: 140.0 mg/kg/injection, schedule: Q01DX009 (ip), vehicle: saline)?
**A.** 176 % of control and 184 % of control

**Q.** What about the T/C (endpoint: mean survival time, dose: 140.0 mg/kg/injection, schedule: Q01DX009 (ip), vehicle: water) of the same compound?
**A.** 250 % of control

**Q.** What about the T/C (endpoint: mean survival time, dose: 140.0 mg/kg/injection, schedule: Q01DX Z (ip), vehicle: water) of the same compound?
**A.** 253 % of control

**Q.** And the T/C (endpoint: mean survival time, dose: 140.0 mg/kg/injection, schedule: Q ##X009 (ip), vehicle: saline)?
**A.** 246 % of control

**Q.** What about the T/C (endpoint: mean survival time, dose: 140.0 mg/kg/injection, schedule: Q## X Z (ip), vehicle: saline) of the same compound?
**A.** 246 % of control

**Q.** And the T/C (endpoint: mean survival time, dose: 150.0 mg/kg/injection, schedule: Q01DX009 (ip), vehicle: saline with Tween-80)?
**A.** 206 % of control

**Q.** What about the T/C (endpoint: mean survival time, dose: 175.0 mg/kg/injection, schedule: Q01DX009 (ip), vehicle: saline with Tween-80) of the same compound?
**A.** 215 % of control

**Q.** What about the T/C (endpoint: mean survival time, dose: 178.0 mg/kg/injection, schedule: Q01DX009 (oral), vehicle: saline) of the same compound?
**A.** 102 % of control

**Q.** And the T/C (endpoint: mean survival time, dose: 180.0 mg/kg/injection, schedule: Q01DX009 (ip), vehicle: saline)?
**A.** 227 % of control and 251 % of control

**Q.** And the T/C [1]?
**A.** 439 % of control

**Q.** What about the T/C (endpoint: mean survival time, dose: 200.0 mg/kg/injection, schedule: Q04DX003 (ip), vehicle: saline with Tween-80) of the same compound?
**A.** 165 % of control

**Q.** What about the T/C (endpoint: mean survival time, dose: 225.0 mg/kg/injection, schedule: Q01DX009 (ip), vehicle: saline with Tween-80) of the same compound?
**A.** 427 % of control

**Q.** And the T/C (endpoint: mean survival time, dose: 250.0 mg/kg/injection, schedule: Q04DX003 (ip), vehicle: saline with Tween-80)?
**A.** 172 % of control

**Q.** What about the T/C (endpoint: mean survival time, dose: 267.0 mg/kg/injection, schedule: Q01DX009 (oral), vehicle: saline) of the same compound?
**A.** 110 % of control

**Q.** And the T/C (endpoint: mean survival time, dose: 270.0 mg/kg/injection, schedule: Q01DX009 (ip), vehicle: saline)?
**A.** 182 % of control

**Q.** And the T/C (endpoint: mean survival time, dose: 280.0 mg/kg/injection, schedule: Q01DX009 (ip), vehicle: saline)?
**A.** 89 % of control

**Q.** And the T/C (endpoint: mean survival time, dose: 300.0 mg/kg/injection, schedule: Q04DX003 (ip), vehicle: saline with Tween-80)?
**A.** 245 % of control

**Q.** What about the T/C (endpoint: mean survival time, dose: 350.0 mg/kg/injection, schedule: Q04DX003 (ip), vehicle: saline with Tween-80) of the same compound?
**A.** 318 % of control

**Q.** And the T/C (endpoint: mean survival time, dose: 400.0 mg/kg/injection, schedule: Q01DX009 (oral), vehicle: saline)?
**A.** 102 % of control

**Q.** And the T/C (endpoint: mean survival time, dose: 400.0 mg/kg/injection, schedule: Q04DX003 (ip), vehicle: saline with Tween-80)?
**A.** 401 % of control

**Q.** What about the T/C (endpoint: mean survival time, dose: 600.0 mg/kg/injection, schedule: Q01DX009 (oral), vehicle: saline) of the same compound?
**A.** 104 % of control

**Q.** What about the T/C (endpoint: median survival time, dose: 108.0 mg/kg/injection, schedule: Q01DX009 (ip), vehicle: water) of the same compound?
**A.** 166 % of control

**Q.** What about the T/C (endpoint: median survival time, dose: 180.0 mg/kg/injection, schedule: Q01DX009 (ip), vehicle: water) of the same compound?
**A.** 461 % of control

**Q.** What does the source list for CC(C)c1ccc(/C=C\C(=O)c2ccc(-c3ccccc3)cc2)cc1?
**A.** T/C (endpoint: mean survival time, dose: 100.0 mg/kg/injection, schedule: Q01DX009 (ip), vehicle: saline with Tween-80): 103 % of control; T/C (endpoint: mean survival time, dose: 100.0 mg/kg/injection, schedule: Q04DX002 (ip), vehicle: saline with Tween-80): 86 % of control; T/C [1]: 106 % of control; T/C (endpoint: mean survival time, dose: 200.0 mg/kg/injection, schedule: Q04DX002 (ip), vehicle: saline with Tween-80): 101 % of control; T/C (endpoint: mean survival time, dose: 400.0 mg/kg/injection, schedule: Q04DX002 (ip), vehicle: saline with Tween-80): 101 % of control
